Measurements published in patent publication US8298781B2, “Compositions and methods for characterizing and regulating olfactory sensation” (Duke University, priority 2007, dated 2012).

How the values were obtained:
Type in all cases: in vivo
human subjects [1] = assay: Human olfactory psychophysics: valence rating by OR7D4 genotype; settings: 7-point scale, two concentrations pooled
Experimental: (§1) Human olfactory psychophysics. All human subjects gave informed consent to participate in this study and were tested in a well-ventilated room. Normal human subjects (n=412; 218 female, 194 male; median age 34, age range 19-75) were pre-screened to exclude pregnant women and those with medical conditions causing general impairment of the sense of smell. All subjects completed two replicates of the test separated by at least 4 days. Odors were presented in amber vials as previously described (see, e.g., Keller, A., et al., Nat Neurosci 7, 337-338 (2004); herein incorporated by reference in its entirety) using bar-coded symbols to ensure that subjects were blind to the identity of all odors. The intensity and valence of 66 odors at two concentrations (“high” and “low”) and two solvents was rated using a 7-point scale. Thresholds were calculated using the single staircase method with seven reversals (see, e.g., Doty, R. L., et al., Chem Senses 20, 645-656 (1995); Doty, R. L. & Laing, D. G. in Handbook of Olfaction and Gustation (ed. Doty, R. L.) pp. 203-228 (Marcel Dekker, Inc., New York, 2003); each of which are herein incorporated by reference in their entireties). Threshold tests included both steroids as binary dilutions from […] (binary dilution 6) to 1: 134,217,728 (binary dilution 27). Subjects who could not reliably distinguish a 1:64 dilution of androstenone and androstadienone from solvent were operationally defined as anosmic to these odorous steroids, although it could not be excluded that these subjects could detect higher concentrations of these steroids (see, e.g., Bremner, E. A., et al., Chem Senses 28, 423-432 (2003); herein incorporated by reference in its entirety). Odor profiling used the method established by Dravnieks, et al. (see, e.g., Dravnieks, A., et al., Science 218, 799-801 (1982); herein incorporated by reference in its entirety).
(§2) Stimuli for olfactory psychophysics. All odors were presented as one ml of an odor dilution in either propylene glycol or paraffin oil in 20 ml amber glass vials. All of these compounds were used in the intensity and valence rating portion of the smell test.
(§3) Olfactory ratings. The intensity and valence of 66 odors were rated at two different concentrations (high and low) and the intensity and valence of the two solvents (paraffin oil and propylene glycol) was rated three times. Prior to these ratings, six stimuli that represented the spectrum of intensity and valence of the stimuli used in the study were presented to allow the subjects to calibrate the usage of the scale. The subjects were unaware that the six first stimuli served that purpose. After the rating of the 66 odors at two concentrations and the rating of the solvents, 15 stimuli that were presented earlier in the experiment were repeated to test for the effect of adaptation and olfactory fatigue on the ratings. The subjects were not aware that the last 15 stimuli served this purpose. These 15 stimuli and the six first stimuli were not included in the analysis presented here. […] The 15 control stimuli and their concentrations were as follows:
(§4) In addition there was a button on the screen labeled “I can't smell anything” and a button labeled “Don't Know”. If the “Don't Know” button was pressed, no rating was recorded. If the “I can't smell anything” button was pressed, a 0 was recorded for the intensity rating and no rating was recorded for the valence rating. The other ratings were transformed according to the following scheme:
(§5) • Extremely Weak=1 • Very Weak=2 • Slightly Weak=3 • Neither Weak nor Strong=4 • Slightly Strong=5 • Very Strong=6 • Extremely Strong=7 Valence Rating • Extremely Unpleasant=1 • Very Unpleasant=2 • Slightly Unpleasant=3 • Neither Unpleasant nor Pleasant=4 • Slightly Pleasant=5 • Very Pleasant=6 • Extremely Pleasant=7
(§6) Averages for the ratings of the different genotypes were calculated. […]

human subjects [2] = assay: Human olfactory psychophysics: odor profiling with 146 descriptors; settings: vanillin 1/200
Experimental: Human olfactory psychophysics. All human subjects gave informed consent to participate in this study and were tested in a well-ventilated room. Normal human subjects (n=412; 218 female, 194 male; median age 34, age range 19-75) were pre-screened to exclude pregnant women and those with medical conditions causing general impairment of the sense of smell. All subjects completed two replicates of the test separated by at least 4 days. Odors were presented in amber vials as previously described (see, e.g., Keller, A., et al., Nat Neurosci 7, 337-338 (2004); herein incorporated by reference in its entirety) using bar-coded symbols to ensure that subjects were blind to the identity of all odors. The intensity and valence of 66 odors at two concentrations (“high” and “low”) and two solvents was rated using a 7-point scale. Thresholds were calculated using the single staircase method with seven reversals (see, e.g., Doty, R. L., et al., Chem Senses 20, 645-656 (1995); Doty, R. L. & Laing, D. G. in Handbook of Olfaction and Gustation (ed. Doty, R. L.) pp. 203-228 (Marcel Dekker, Inc., New York, 2003); each of which are herein incorporated by reference in their entireties). Threshold tests included both steroids as binary dilutions from […] (binary dilution 6) to 1: 134,217,728 (binary dilution 27). […]
Assigning descriptors to odors. Subjects assessed the quality of six odors using an odor profiling method that has shown to produce stable profiles of odorants. […] Odor profiling typically took five minutes per odorant and was performed as a computer-controlled selftest in which the subject's responses were directly recorded. […] The descriptors used to describe the other four odors (vanillin, pentadecalactone, androstenone, and propylene glycol) were evaluated. […]

human subjects [3] = assay: Human olfactory psychophysics: intensity rating by OR7D4 genotype; settings: 7-point scale, two concentrations pooled; N=100 RT/WM, N=255 RT/RT
Experimental: as §1, §2, §3, §4, §5, §6

SMILES	valence rating, OR7D4 RT/WM vs RT/RT subjects (human subjects [1])	use of two descriptors, OR7D4 RT/WM vs RT/RT subjects (human subjects [2])	intensity rating, OR7D4 RT/WM vs RT/RT subjects (human subjects [3])
COc1cc(C=O)ccc1O [vanillin]	less pronounced—but statistically significant—difference	comparable increase	–
O=C1CCCCCCCCCCCCCCO1 [pentadecalactone]	–	–	not affected
CC1COCc2cc3c(cc21)C(C)(C)C(C)C3(C)C (centres unmarked) [galaxolide]	–	–	not affected
CCCCCCCCOC(C)=O [octyl acetate]	less pronounced—but statistically significant—difference	–	–
